Several values for one entry are separate records, joined by “and”; a condition that tells them apart may be missing. Identical values can stand only once. Like-named read-outs stand apart in the source and are kept apart here.
Key:
[1] = Urinary and fecal cumulative excretion of SGC003F in rats with or without tariquidar; format: in vivo; conditions: rat, SGC003F p.o. 1 mg/kg; for dose excreted: male, SD, urine and faeces
Description: In total, 18 male SD rats were randomly divided into three groups, with 6 rats in each group. Group I: SGC003F (p.o., 1 mg/kg) + blank vehicle (control group); Group Ⅱ: SGC003F (p.o., 1 mg/kg) + tariquidar (i.v., 7.5 mg/kg); Group III: SGC003F (p.o., 1 mg/kg) + tariquidar (p.o., 15 mg/kg). The rats were fasted for 12 h before oral administration. After administration, the rats were placed immediately in a metabolic cage and resumed feeding for 2 h. Urine and fecal samples were collected at 0–4, 4–8, 8–12, 12–24, 24–36, 36–48, 48–72, 72–96, and 96–120 h after administration. Fecal samples were homogenized with acetonitrile at a ratio of 1:4 (w/v) and stored at −40 °C for analysis.

[2] = Tissue distribution of SGC003F in rats with or without tariquidar; format: in vivo; conditions: rat; for Kp / AUC(0-t): male
Description: A total of 45 male SD rats were randomly divided into 15 groups, with 3 rats in each group; each set of 5 groups constituted a larger group. The first large group served as the control group: SGC003F (p.o., 1 mg/kg) + blank solvent; the second large group was designated as experimental Group I: SGC003F (p.o., 1 mg/kg) + tariquidar (i.v., 7.5 mg/kg); the third group was labeled as Group II: SGC003F (p.o., 1 mg/kg) + tariquidar (p.o., 15 mg/kg). The rats in each group were euthanized at 0.5 h, 1 h, 2 h, 4 h, and 24 h after administration. Blood samples were collected by cardiac puncture and placed in heparin tubes. The plasma was harvested by centrifugation at 2500× g for 10 min at 4 °C. Major organs (brain, heart, liver, kidney, and small intestine) were collected and homogenized with saline at a ratio of 1:4 (w/v). All samples were stored at −40 °C for further analysis.
The tissue plasma partition coefficient at individual time point (KP1) was calculated by the ratio of the tissue concentration to the plasma concentration at each time point, as described in Equation (3) KP1 = Ctissue/Cplasma(3)
The overall tissue plasma partition coefficient (KP2) was calculated by the ratio of the area under the tissue drug-time curve to the area under the plasma drug–time curve, as described in Equation (4) KP2 = AUC(0-t, tissue)/AUC(0-t, plasma)(4)

[3] = single, within 120 h, parent drug
[4] = tariquidar i.v. 7.5 mg/kg, 120 h
[5] = tariquidar p.o. 15 mg/kg, 120 h
[6] = with tariquidar i.v. 7.5 mg/kg, 120 h
[7] = with tariquidar p.o. 15 mg/kg, 120 h
[8] = SGC003F p.o. 1 mg/kg, tariquidar i.v. 7.5 mg/kg
[9] = SGC003F p.o. 1 mg/kg, tariquidar p.o. 15 mg/kg

SMILES: COC(=O)Nc1c(N)nc(-c2nn(Cc3sccc3F)c3ncc(F)cc23)nc1N [SGC003F]
- dose excreted ([1]; oral, with tariquidar i.v. 7.5 mg/kg, 120 h, read-out: U + F (total urinary and fecal recovery)): 37.9 ± 5.99%
- dose excreted ([1]; oral, with tariquidar p.o. 15 mg/kg, 120 h, read-out: U + F (total urinary and fecal recovery)): 36.7 ± 3.36%
- dose excreted ([1]; po, 1 mg/kg, single, within 120 h, read-out: U + F (total urinary and fecal recovery of parent drug)): 71.5 ± 15.1%
- Total cumulative urinary and fecal excretion relative to control group ([1]; after co-administration of tariquidar): 50%
- F (cumulative fecal excretion) [1, 3]: 59.5 ± 14.4%
- U (cumulative urinary excretion) [1, 3]: 11.9 ± 1.36%
- F (fecal), Ratio 1 (with Tar (i.v.)/single) [1, 4]: 0.32
- U + F, Ratio 1 (with Tar (i.v.)/single) [1, 4]: 0.53
- U, Ratio 1 (with Tar (i.v.)/single) [1, 4]: 1.56
- F (fecal), Ratio 2 (with Tar (p.o.)/single) [1, 5]: 0.19
- U + F, Ratio 2 (with Tar (p.o.)/single) [1, 5]: 0.51
- U, Ratio 2 (with Tar (p.o.)/single) [1, 5]: 2.13
- F (cumulative fecal excretion) [1, 6]: 19.3% and 19.3 ± 2.31 %
- U (cumulative urinary excretion) [1, 6]: 18.6% and 18.6 ± 4.37%
- F (cumulative fecal excretion) [1, 7]: 11.5% and 11.5 ± 2.61 %
- U (cumulative urinary excretion) [1, 7]: 25.3% and 25.3 ± 1.62%
- Kp ([2]; SD, brain, oral, SGC003F p.o. 1 mg/kg, with tariquidar i.v. 7.5 mg/kg, read-out: KP2, Brain): 0.004
- Kp ([2]; SD, brain, oral, SGC003F p.o. 1 mg/kg, with tariquidar p.o. 15 mg/kg, read-out: KP2, Brain): 0.004
- AUC(0-t) ([2]; SD, brain, po, 1 mg/kg, SGC003F p.o. 1 mg/kg, single, read-out: AUC(0–24h), Brain): 13.1 ± 2.66 ng·h/mL
- AUC(0-t) ([2]; SD, brain, po, 1 mg/kg, SGC003F p.o. 1 mg/kg, with tariquidar i.v. 7.5 mg/kg, read-out: AUC(0–24h), Brain): 31.2 ± 10.9 ng·h/mL
- AUC(0-t) ([2]; SD, brain, po, 1 mg/kg, SGC003F p.o. 1 mg/kg, with tariquidar p.o. 15 mg/kg, read-out: AUC(0–24h), Brain): 41.5 ± 14.8 ng·h/mL
- Kp ([2]; SD, heart, oral, SGC003F p.o. 1 mg/kg, with tariquidar i.v. 7.5 mg/kg, read-out: KP2, Heart): 0.4 ± 0.02
- Kp ([2]; SD, heart, oral, SGC003F p.o. 1 mg/kg, with tariquidar p.o. 15 mg/kg, read-out: KP2, Heart): 0.45 ± 0.09
- AUC(0-t) ([2]; SD, heart, po, 1 mg/kg, SGC003F p.o. 1 mg/kg, single, read-out: AUC(0–24h), Heart): 2370 ± 346 ng·h/mL
- Kp ([2]; SD, heart, po, 1 mg/kg, SGC003F p.o. 1 mg/kg, single, read-out: KP2 (tissue/plasma AUC), Heart): 0.45 ± 0.04
- AUC(0-t) ([2]; SD, heart, po, 1 mg/kg, SGC003F p.o. 1 mg/kg, with tariquidar i.v. 7.5 mg/kg, read-out: AUC(0–24h), Heart): 3060 ± 619 ng·h/mL
- AUC(0-t) ([2]; SD, heart, po, 1 mg/kg, SGC003F p.o. 1 mg/kg, with tariquidar p.o. 15 mg/kg, read-out: AUC(0–24h), Heart): 4750 ± 1820 ng·h/mL
- AUC(0-t) ([2]; SD, kidney, po, 1 mg/kg, SGC003F p.o. 1 mg/kg, single, read-out: AUC(0–24h), Kidney): 5990 ± 2170 ng·h/mL
- AUC(0-t) ([2]; SD, kidney, po, 1 mg/kg, SGC003F p.o. 1 mg/kg, with tariquidar i.v. 7.5 mg/kg, read-out: AUC(0–24h), Kidney): 7870 ± 1570 ng·h/mL
- AUC(0-t) ([2]; SD, kidney, po, 1 mg/kg, SGC003F p.o. 1 mg/kg, with tariquidar p.o. 15 mg/kg, read-out: AUC(0–24h), Kidney): 11900 ng·h/mL
- AUC(0-t) ([2]; SD, liver, po, 1 mg/kg, SGC003F p.o. 1 mg/kg, single, read-out: AUC(0–24h), Liver): 4870 ± 1050 ng·h/mL
- AUC(0-t) ([2]; SD, liver, po, 1 mg/kg, SGC003F p.o. 1 mg/kg, with tariquidar i.v. 7.5 mg/kg, read-out: AUC(0–24h), Liver): 6360 ± 283 ng·h/mL
- AUC(0-t) ([2]; SD, liver, po, 1 mg/kg, SGC003F p.o. 1 mg/kg, with tariquidar p.o. 15 mg/kg, read-out: AUC(0–24h), Liver): 9600 ± 1820 ng·h/mL
- AUC(0-t) ([2]; SD, plasma, po, 1 mg/kg, SGC003F p.o. 1 mg/kg, single, read-out: AUC(0–24h), Plasma): 5310 ± 798 ng·h/mL
- AUC(0-t) ([2]; SD, plasma, po, 1 mg/kg, SGC003F p.o. 1 mg/kg, with tariquidar i.v. 7.5 mg/kg, read-out: AUC(0–24h), Plasma): 7540 ± 1280 ng·h/mL
- AUC(0-t) ([2]; SD, plasma, po, 1 mg/kg, SGC003F p.o. 1 mg/kg, with tariquidar p.o. 15 mg/kg, read-out: AUC(0–24h), Plasma): 10200 ng·h/mL
- AUC(0-t) ([2]; SD, small intestine, po, 1 mg/kg, SGC003F p.o. 1 mg/kg, single, read-out: AUC(0–24h), Intestine): 2530 ± 988 ng·h/mL
- AUC(0-t) ([2]; SD, small intestine, po, 1 mg/kg, SGC003F p.o. 1 mg/kg, with tariquidar i.v. 7.5 mg/kg, read-out: AUC(0–24h), Intestine): 5630 ± 1360 ng·h/mL
- AUC(0-t) ([2]; SD, small intestine, po, 1 mg/kg, SGC003F p.o. 1 mg/kg, with tariquidar p.o. 15 mg/kg, read-out: AUC(0–24h), Intestine): 10400 ng·h/mL
- Kp ([2]; Sprague-Dawley, brain, po, 1 mg/kg, SGC003F p.o. 1 mg/kg, single, read-out: KP2 (tissue/plasma AUC), Brain): 0.002
- Kp ([2]; Sprague-Dawley, kidney, oral, SGC003F p.o. 1 mg/kg, with tariquidar i.v. 7.5 mg/kg, read-out: KP2, Kidney): 1.05 ± 0.14
- Kp ([2]; Sprague-Dawley, kidney, oral, SGC003F p.o. 1 mg/kg, with tariquidar p.o. 15 mg/kg, read-out: KP2, Kidney): 1.16 ± 0.26
- Kp ([2]; Sprague-Dawley, kidney, po, 1 mg/kg, SGC003F p.o. 1 mg/kg, single, read-out: KP2 (tissue/plasma AUC), Kidney): 1.11 ± 0.24
- Kp ([2]; Sprague-Dawley, liver, oral, SGC003F p.o. 1 mg/kg, with tariquidar i.v. 7.5 mg/kg, read-out: KP2, Liver): 0.86 ± 0.11
- Kp ([2]; Sprague-Dawley, liver, oral, SGC003F p.o. 1 mg/kg, with tariquidar p.o. 15 mg/kg, read-out: KP2, Liver): 0.95 ± 0.07
- Kp ([2]; Sprague-Dawley, liver, po, 1 mg/kg, SGC003F p.o. 1 mg/kg, single, read-out: KP2 (tissue/plasma AUC), Liver): 0.91 ± 0.09
- Kp ([2]; Sprague-Dawley, small intestine, oral, SGC003F p.o. 1 mg/kg, with tariquidar i.v. 7.5 mg/kg, read-out: KP2, Intestine): 0.74 ± 0.06
- Kp ([2]; Sprague-Dawley, small intestine, oral, SGC003F p.o. 1 mg/kg, with tariquidar p.o. 15 mg/kg, read-out: KP2, Intestine): 1.01 ± 0.19
- Kp ([2]; Sprague-Dawley, small intestine, po, 1 mg/kg, SGC003F p.o. 1 mg/kg, single, read-out: KP2 (tissue/plasma AUC), Intestine): 0.47 ± 0.11
- Brain-to-plasma concentration ratio relative to control group ([2]; 4 h, SGC003F p.o. 1 mg/kg with tariquidar (oral or i.v.)): twice
- Increase of SGC003F concentration in the brain versus SGC003F alone ([2]; 4 h, SGC003F p.o. 1 mg/kg, tariquidar intravenously 7.5 mg/kg): 3.2 fold
- Increase of SGC003F concentration in the brain versus SGC003F alone ([2]; 4 h, SGC003F p.o. 1 mg/kg, tariquidar orally 15 mg/kg): 4.2 fold
- Concentration of SGC003F in the brain ([2]; 24 h, all groups (alone or with tariquidar)): below the limit of quantification
- AUC(0–24h), Brain, Ratio 1 (with Tar (i.v.)/single) [2, 8]: 2.4
- AUC(0–24h), Heart, Ratio 1 (with Tar (i.v.)/single) [2, 8]: ~1.3
- AUC(0–24h), Intestine, Ratio 1 (with Tar (i.v.)/single) [2, 8]: 2.2
- AUC(0–24h), Kidney, Ratio 1 (with Tar (i.v.)/single) [2, 8]: ~1.3
- AUC(0–24h), Liver, Ratio 1 (with Tar (i.v.)/single) [2, 8]: ~1.3
- AUC(0–24h), Plasma, Ratio 1 (with Tar (i.v.)/single) [2, 8]: 1.4
- KP2, Brain, Ratio 1 (with Tar (i.v.)/single) [2, 8]: 2.0
- KP2, Intestine, Ratio 1 (with Tar (i.v.)/single) [2, 8]: 1.6
- AUC(0–24h), Heart, Ratio 2 (with Tar (p.o.)/single) [2, 9]: 2.0
- AUC(0–24h), Kidney, Ratio 2 (with Tar (p.o.)/single) [2, 9]: 2.0
- AUC(0–24h), Liver, Ratio 2 (with Tar (p.o.)/single) [2, 9]: 2.0
- AUC(0–24h), Plasma, Ratio 2 (with Tar (p.o.)/single) [2, 9]: 2.0
- KP2, Brain, Ratio 2 (with Tar (p.o.)/single) [2, 9]: 2.0
- KP2, Heart, Ratio 2 (with Tar (p.o.)/single) [2, 9]: 1.0
- KP2, Intestine, Ratio 2 (with Tar (p.o.)/single) [2, 9]: 2.1
- KP2, Kidney, Ratio 2 (with Tar (p.o.)/single) [2, 9]: 1.0
- KP2, Liver, Ratio 2 (with Tar (p.o.)/single) [2, 9]: 1.0
